# Several values for one entry are separate records, joined by “and”; a condition that tells them apart may be missing. Identical values can stand only once.
# Experiments:
# Experiment in all cases: cells
# MN-60 = format: functional, cell-based; conditions: Homo sapiens;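 note: growth inhibition of the MN-60 cell line, determined with a cell viability assay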
# Description: SANGER: Inhibition of human MN-60 cell growth in a cell viability assay.
# CAL-85-1 = format: functional, cell-based; conditions: Homo sapiens;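 note: growth inhibition of human CAL-85-1 cells, read out with a cell viability assay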
# NCI-N87 = format: functional, cell-based, Homo sapiens;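 note: growth inhibition of human NCI-N87 cells, read out with a cell viability assay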
# Description: SANGER: Inhibition of human NCI-N87 cell growth in a cell viability assay.
# UACC-893 = format: functional, cell-based, Homo sapiens
# Description: SANGER: Inhibition of human UACC-893 cell growth in a cell viability assay.
# EGI-1 = format: functional, cell-based, Homo sapiens;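 note: cell viability readout used to gauge growth inhibition of EGI-1 cells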
# Description: SANGER: Inhibition of human EGI-1 cell growth in a cell viability assay.
# NCI-H2126 = format: functional, cell-based, Homo sapiens;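 note: growth inhibition of the cancer cell line, determined with a cell viability readout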
# Description: SANGER: Inhibition of human NCI-H2126 cell growth in a cell viability assay.
# TE-10 = format: functional, cell-based, Homo sapiens;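 note: growth inhibition of TE-10 cells, measured by a cell viability assay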
# KINGS-1 = format: functional, cell-based, Homo sapiens;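 note: cell viability assay measuring suppression of KINGS-1 cell growth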
# Description: SANGER: Inhibition of human KINGS-1 cell growth in a cell viability assay.
# CAL-120 = format: functional, cell-based, Homo sapiens;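 note: cell growth inhibition, read out as cell viability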
# Description: SANGER: Inhibition of human CAL-120 cell growth in a cell viability assay.
# Ca9-22 = format: functional, cell-based, Homo sapiens;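 note: growth inhibition of Ca9-22 cells, read out with a cell viability assay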
# Description: SANGER: Inhibition of human Ca9-22 cell growth in a cell viability assay.
# EW-11 = format: functional, cell-based, Homo sapiens;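 note: growth inhibition of human EW-11 cells, measured with a cell viability assay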
# Description: SANGER: Inhibition of human EW-11 cell growth in a cell viability assay.
# HuTu80 = format: functional, cell-based, Homo sapiens, HUTU-80;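 note: growth inhibition of HuTu80 human cells, determined with a cell viability readout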
# Description: SANGER: Inhibition of human HUTU-80 cell growth in a cell viability assay.
# NCI-H661 = format: functional, cell-based, Homo sapiens;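 note: cell viability assay read-out, IC50 being the concentration that inhibits growth of the cells by half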
# Description: SANGER: Inhibition of human NCI-H661 cell growth in a cell viability assay.
# SK-NEP-1 = format: functional, cell-based; conditions: Homo sapiens;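 note: growth inhibition of human SK-NEP-1 cells, read out by a cell viability assay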
# Description: SANGER: Inhibition of human SK-NEP-1 cell growth in a cell viability assay.
# NCI-H209 = format: functional, cell-based; conditions: Homo sapiens;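 note: growth inhibition of human NCI-H209 cells, measured by a cell viability assay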
# Description: SANGER: Inhibition of human NCI-H209 cell growth in a cell viability assay.
# GI-ME-N = format: functional, cell-based, Homo sapiens;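 note: growth inhibition of human GI-ME-N cells, read out with a cell viability assay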
# Description: SANGER: Inhibition of human GI-ME-N cell growth in a cell viability assay.
# COLO-741 = format: functional, cell-based, Homo sapiens
# Description: SANGER: Inhibition of human COLO-741 cell growth in a cell viability assay.
# NCI-H446 = format: functional, cell-based; conditions: Homo sapiens;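 note: growth inhibition of NCI-H446 cells determined by a cell viability assay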
# Description: SANGER: Inhibition of human NCI-H446 cell growth in a cell viability assay.
# HT = format: functional, cell-based; conditions: Homo sapiens
# Description: SANGER: Inhibition of human HT cell growth in a cell viability assay.
# HAL-01 = format: functional, cell-based; conditions: Homo sapiens;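 note: growth inhibition of human HAL-01 cells, read out with a cell viability assay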
# Description: SANGER: Inhibition of human HAL-01 cell growth in a cell viability assay.
# SK-N-FI = format: functional, cell-based, Homo sapiens;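 note: cell viability assay measuring growth inhibition of human SK-N-FI cells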
# Description: SANGER: Inhibition of human SK-N-FI cell growth in a cell viability assay.
# D-263MG = format: functional, cell-based, Homo sapiens
# Description: SANGER: Inhibition of human D-263MG cell growth in a cell viability assay.
# KURAMOCHI = format: functional, cell-based; conditions: Homo sapiens;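 note: growth inhibition of KURAMOCHI cells, read out with a cell viability assay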
# Description: SANGER: Inhibition of human KURAMOCHI cell growth in a cell viability assay.
# LU-134-A = format: functional, cell-based; conditions: Homo sapiens
# Description: SANGER: Inhibition of human LU-134-A cell growth in a cell viability assay.
# HCC1937 = format: functional, cell-based, Homo sapiens;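 note: growth inhibition measured with a cell viability read-out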
# Description: SANGER: Inhibition of human HCC1937 cell growth in a cell viability assay.
# CAL-51 = format: functional, cell-based, Homo sapiens;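 note: human CAL-51 cell line, growth inhibition read out via a cell viability assay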
# Description: SANGER: Inhibition of human CAL-51 cell growth in a cell viability assay.
# LB2518-MEL = format: functional, cell-based, Homo sapiens;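 note: growth inhibition of human LB2518-MEL cells, measured with a cell viability assay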
# Description: SANGER: Inhibition of human LB2518-MEL cell growth in a cell viability assay.
# A253 cell line = format: functional, cell-based, Homo sapiens;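 note: growth inhibition of A253 cells, read out with a cell viability assay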
# Description: SANGER: Inhibition of human A253 cell growth in a cell viability assay.
# NCI-H1770 = format: functional, cell-based; conditions: Homo sapiens;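 note: growth inhibition of NCI-H1770 cells determined with a viability readout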
# Description: SANGER: Inhibition of human NCI-H1770 cell growth in a cell viability assay.
# KNS-42 = format: functional, cell-based, Homo sapiens;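 note: growth inhibition of KNS-42 cells, read out with a cell viability assay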
# Description: SANGER: Inhibition of human KNS-42 cell growth in a cell viability assay.
# HMV-2 cell line = format: functional, cell-based, Homo sapiens;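 note: growth inhibition of HMV-II cells, read out with a cell viability assay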
# Description: SANGER: Inhibition of human HMV-II cell growth in a cell viability assay.
# KYSE-410 = format: functional, cell-based, Homo sapiens;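 note: growth inhibition of KYSE-410 cells, measured through a cell viability readout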
# Description: SANGER: Inhibition of human KYSE-410 cell growth in a cell viability assay.
# ES5 = format: functional, cell-based, Homo sapiens;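 note: growth inhibition of human ES5 cells, read out by a cell viability assay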
# HOP-92 = format: functional, cell-based, Homo sapiens;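 note: cell viability readout, with IC50 reflecting inhibition of HOP-92 cell growth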
# Description: SANGER: Inhibition of human HOP-92 cell growth in a cell viability assay.
# NCI-H1651 = format: functional, cell-based, Homo sapiens;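 note: Read-out is a cell viability assay, with IC50 expressing inhibition of NCI-H1651 cell growth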
# Description: SANGER: Inhibition of human NCI-H1651 cell growth in a cell viability assay.
# HT-3 = format: functional, cell-based, Homo sapiens;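 note: growth inhibition measured with a cell viability readout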
# Description: SANGER: Inhibition of human HT-3 cell growth in a cell viability assay.
# COLO-824 = format: functional, cell-based, Homo sapiens
# Description: SANGER: Inhibition of human COLO-824 cell growth in a cell viability assay.
# SNU1 = format: functional, cell-based; conditions: Homo sapiens;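 note: growth inhibition of human NCI-SNU-1 cells, measured with a cell viability assay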
# Description: SANGER: Inhibition of human NCI-SNU-1 cell growth in a cell viability assay.
# KARPAS-299 = format: functional, cell-based; conditions: Homo sapiens
# Description: SANGER: Inhibition of human KARPAS-299 cell growth in a cell viability assay.
# NCI-H520 = format: functional, cell-based, Homo sapiens;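 note: growth inhibition of NCI-H520 cells, measured by a cell viability assay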
# Description: SANGER: Inhibition of human NCI-H520 cell growth in a cell viability assay.
# HC-1 = format: functional, cell-based; conditions: Homo sapiens;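 note: growth inhibition of HC-1 cells measured by a cell viability assay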
# Description: SANGER: Inhibition of human HC-1 cell growth in a cell viability assay.
# ES1 = format: functional, cell-based, Homo sapiens;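 note: growth inhibition of ES1 cells, read out with a cell viability assay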
# Description: SANGER: Inhibition of human ES1 cell growth in a cell viability assay.
# KP-N-YS = format: functional, cell-based; conditions: Homo sapiens;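 note: cell viability assay measuring inhibition of cell line growth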
# Description: SANGER: Inhibition of human KP-N-YS cell growth in a cell viability assay.
# LU-139 = format: functional, cell-based; conditions: Homo sapiens
# Description: SANGER: Inhibition of human LU-139 cell growth in a cell viability assay.
# SW626 = format: functional, cell-based, Homo sapiens;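 note: growth inhibition of SW626 cells, measured with a cell viability assay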
# Description: SANGER: Inhibition of human SW626 cell growth in a cell viability assay.
# NCI-H810 = format: functional, cell-based, Homo sapiens;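 note: IC50 reflects inhibition of cancer cell line growth, read out with a cell viability assay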
# Description: SANGER: Inhibition of human NCI-H810 cell growth in a cell viability assay.
# EOL1 = format: functional, cell-based; conditions: Homo sapiens;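 note: growth inhibition of EoL-1 cells, read out by a cell viability assay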
# Description: SANGER: Inhibition of human EoL-1-cell cell growth in a cell viability assay.
# SK-HEP1 = format: functional, cell-based, Homo sapiens, SK-HEP-1;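 note: cell viability readout used to quantify reduction in proliferation of human SK-HEP-1 cells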
# Description: SANGER: Inhibition of human SK-HEP-1 cell growth in a cell viability assay.
# Capan-2 = format: functional, cell-based, Homo sapiens;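 note: Capan-2 cell growth inhibition, read out with a viability assay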
# Description: SANGER: Inhibition of human Capan-2 cell growth in a cell viability assay.
# GI-1 = format: functional, cell-based, Homo sapiens
# Description: SANGER: Inhibition of human GI-1 cell growth in a cell viability assay.
# GMS-10 = format: functional, cell-based, Homo sapiens;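 note: growth inhibition of GMS-10 cells, read out as cell viability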
# Description: SANGER: Inhibition of human GMS-10 cell growth in a cell viability assay.
# OCUB-M = format: functional, cell-based, Homo sapiens;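 note: growth inhibition of the cancer cell line, read out through a cell viability assay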
# Description: SANGER: Inhibition of human OCUB-M cell growth in a cell viability assay.
smiles,measurement,setting,value
Cn1cncc1[C@@](N)(c1ccc(Cl)cc1)c1ccc2c(c1)c(-c1cccc(Cl)c1)cc(=O)n2C [TIPIFARNIB],IC50,MN-60,> 16 µM
same,IC50,CAL-85-1,1.25 µM
same,IC50,"NCI-N87; Homo sapiens, NCI-N87",> 16 µM
same,IC50,"UACC-893; Homo sapiens, UACC-893",> 16 µM
same,IC50,"EGI-1; Homo sapiens, EGI-1",11.6 µM
same,IC50,"NCI-H2126; Homo sapiens, NCI-H2126",> 16 µM
same,IC50,"TE-10; Homo sapiens, TE-10",0.812 µM
same,IC50,"KINGS-1; Homo sapiens, KINGS-1",> 16 µM
same,IC50,"CAL-120; Homo sapiens, CAL-120",> 16 µM
same,IC50,"Ca9-22; Homo sapiens, Ca9-22",2.94 µM
same,IC50,"EW-11; Homo sapiens, EW-11",> 16 µM
same,IC50,"HuTu80; Homo sapiens, HuTu80",0.285 µM
same,IC50,"NCI-H661; Homo sapiens, NCI-H661",7.5 µM
same,IC50,SK-NEP-1,9.94 µM
same,IC50,NCI-H209,> 16 µM
same,IC50,"GI-ME-N; Homo sapiens, GI-ME-N",> 16 µM
same,IC50,"COLO-741; Homo sapiens, COLO-741",6.55 µM
same,IC50,NCI-H446,> 16 µM
same,IC50,HT,8.29 µM
same,IC50,HAL-01,6.74 µM
same,IC50,"SK-N-FI; Homo sapiens, SK-N-FI",> 16 µM
same,IC50,"D-263MG; Homo sapiens, D-263MG",> 16 µM
same,IC50,KURAMOCHI,4.78 µM
same,IC50,LU-134-A,> 16 µM
same,IC50,"HCC1937; Homo sapiens, HCC1937",9.02 µM
same,IC50,"CAL-51; Homo sapiens, CAL-51",3.53 µM
same,IC50,"LB2518-MEL; Homo sapiens, LB2518-MEL",2.1 µM
same,IC50,"A253 cell line; Homo sapiens, A253",10.5 µM
same,IC50,NCI-H1770,> 16 µM
same,IC50,"KNS-42; Homo sapiens, KNS-42",5.76 µM
same,IC50,"HMV-2 cell line; Homo sapiens, HMV-2",0.216 µM
same,IC50,"KYSE-410; Homo sapiens, KYSE-410",3.5 µM
same,IC50,"ES5; Homo sapiens, ES5",> 16 µM
same,IC50,"HOP-92; Homo sapiens, HOP-92",9.13 µM
same,IC50,"NCI-H1651; Homo sapiens, NCI-H1651",> 16 µM
same,IC50,"HT-3; Homo sapiens, HT-3",> 16 µM
same,IC50,"COLO-824; Homo sapiens, COLO-824",> 16 µM
same,IC50,SNU1,> 16 µM
same,IC50,KARPAS-299,> 16 µM
same,IC50,"NCI-H520; Homo sapiens, NCI-H520",2.22 µM
same,IC50,HC-1,1.75 µM
same,IC50,"ES1; Homo sapiens, ES1",1.96 µM
same,IC50,KP-N-YS,> 16 µM
same,IC50,LU-139,> 16 µM
same,IC50,"SW626; Homo sapiens, SW626",1.37 µM
same,IC50,"NCI-H810; Homo sapiens, NCI-H810",1.63 µM
same,IC50,EOL1,6.71 µM
same,IC50,"SK-HEP1; Homo sapiens, SK-HEP1",0.714 µM
same,IC50,"Capan-2; Homo sapiens, Capan-2",10.6 µM
same,IC50,"GI-1; Homo sapiens, GI-1",4.42 µM
same,IC50,"GMS-10; Homo sapiens, GMS-10",> 16 µM
same,IC50,"OCUB-M; Homo sapiens, OCUB-M",0.472 µM
Cc1cc([C@@H](C)Nc2ccccc2C(=O)O)c2nc(N3CCOCC3)cc(=O)n2c1 [AZD-6482],IC50,MN-60,> 5.12 µM
same,IC50,CAL-85-1,2.28 µM
same,IC50,NCI-N87; nci-n87,> 5.12 µM
same,IC50,UACC-893; uacc-893,3.98 µM and 1.51 µM
same,IC50,EGI-1; egi-1,> 5.12 µM
same,IC50,NCI-H2126; nci-h2126,> 5.12 µM
same,IC50,TE-10; te-10,> 5.12 µM
same,IC50,"KINGS-1; Homo sapiens, KINGS-1",> 5.12 µM
same,IC50,KINGS-1; kings-1,> 5.12 µM
same,IC50,CAL-120; cal-120,> 5.12 µM
same,IC50,Ca9-22; ca9-22,> 5.12 µM
same,IC50,EW-11; ew-11,> 5.12 µM
same,IC50,"HuTu80; Homo sapiens, HuTu80",> 5.12 µM
same,IC50,HuTu80; hutu-80,> 5.12 µM
same,IC50,NCI-H661; nci-h661,> 5.12 µM
same,IC50,SK-NEP-1,> 5.12 µM
same,IC50,NCI-H209,> 5.12 µM
same,IC50,GI-ME-N; gi-me-n,> 5.12 µM
same,IC50,COLO-741; colo-741,> 5.12 µM
same,IC50,NCI-H446,> 5.12 µM
same,IC50,HT,4.02 µM
same,IC50,HAL-01,1.3 µM
same,IC50,SK-N-FI; sk-n-fi,> 5.12 µM
same,IC50,D-263MG; d-263mg,> 5.12 µM and 2.17 µM
same,IC50,LU-134-A,> 5.12 µM
same,IC50,HCC1937; hcc1937,> 5.12 µM
same,IC50,CAL-51; cal-51,> 5.12 µM
same,IC50,"LB2518-MEL; Homo sapiens, LB2518-MEL",> 5.12 µM
same,IC50,LB2518-MEL; lb2518-mel,> 5.12 µM
same,IC50,"A253 cell line; Homo sapiens, A253",> 5.12 µM
same,IC50,A253 cell line; a253,> 5.12 µM
same,IC50,NCI-H1770,> 5.12 µM
same,IC50,KNS-42; kns-42,> 5.12 µM
same,IC50,HMV-2 cell line; hmv-2,> 5.12 µM
same,IC50,KYSE-410; kyse-410,> 5.12 µM
same,IC50,ES5; es5,> 5.12 µM
same,IC50,HOP-92; hop-92,> 5.12 µM and 4.58 µM
same,IC50,"NCI-H1651; Homo sapiens, NCI-H1651",> 5.12 µM
same,IC50,NCI-H1651; nci-h1651,> 5.12 µM
same,IC50,HT-3; ht-3,> 5.12 µM
same,IC50,COLO-824; colo-824,> 5.12 µM
same,IC50,SNU1,> 5.12 µM
same,IC50,KARPAS-299,> 5.12 µM
same,IC50,"NCI-H520; Homo sapiens, NCI-H520",4.21 µM
same,IC50,NCI-H520; nci-h520,> 5.12 µM
same,IC50,HC-1,> 5.12 µM
same,IC50,ES1; es1,> 5.12 µM
same,IC50,KP-N-YS,> 5.12 µM
same,IC50,LU-139,> 5.12 µM
same,IC50,SW626; sw626,> 5.12 µM
same,IC50,"NCI-H810; Homo sapiens, NCI-H810",> 5.12 µM
same,IC50,NCI-H810; nci-h810,> 5.12 µM
same,IC50,EOL1,> 5.12 µM
same,IC50,"SK-HEP1; Homo sapiens, SK-HEP1",> 5.12 µM
same,IC50,SK-HEP1; sk-hep-1,> 5.12 µM
same,IC50,Capan-2; capan-2,> 5.12 µM
same,IC50,GI-1; gi-1,1.32 µM and > 5.12 µM
same,IC50,"GMS-10; Homo sapiens, GMS-10",> 5.12 µM
same,IC50,GMS-10; gms-10,> 5.12 µM
same,IC50,OCUB-M; ocub-m,1.58 µM and 0.728 µM
CN(C)C/C=C/C(=O)Nc1cc2c(Nc3ccc(F)c(Cl)c3)ncnc2cc1O[C@H]1CCOC1 [AFATINIB],IC50,MN-60,> 0.5 µM
same,IC50,CAL-85-1,> 0.5 µM
same,IC50,"NCI-N87; Homo sapiens, NCI-N87",0.0277 µM
same,IC50,"UACC-893; Homo sapiens, UACC-893",0.119 µM
same,IC50,"EGI-1; Homo sapiens, EGI-1",> 0.5 µM
same,IC50,"NCI-H2126; Homo sapiens, NCI-H2126",> 0.5 µM
same,IC50,"TE-10; Homo sapiens, TE-10",> 0.5 µM
same,IC50,"KINGS-1; Homo sapiens, KINGS-1",> 0.5 µM
same,IC50,"CAL-120; Homo sapiens, CAL-120",> 0.5 µM
same,IC50,"Ca9-22; Homo sapiens, Ca9-22",0.0835 µM
same,IC50,"EW-11; Homo sapiens, EW-11",> 0.5 µM
same,IC50,"HuTu80; Homo sapiens, HuTu80",> 0.5 µM
same,IC50,"NCI-H661; Homo sapiens, NCI-H661",> 0.5 µM
same,IC50,SK-NEP-1,> 0.5 µM
same,IC50,NCI-H209,0.205 µM
same,IC50,"GI-ME-N; Homo sapiens, GI-ME-N",> 0.5 µM
same,IC50,"COLO-741; Homo sapiens, COLO-741",> 0.5 µM
same,IC50,NCI-H446,> 0.5 µM
same,IC50,HT,> 0.5 µM
same,IC50,HAL-01,> 0.5 µM
same,IC50,"SK-N-FI; Homo sapiens, SK-N-FI",> 0.5 µM
same,IC50,"D-263MG; Homo sapiens, D-263MG",> 0.5 µM
same,IC50,KURAMOCHI,> 0.5 µM
same,IC50,LU-134-A,> 0.5 µM
same,IC50,"HCC1937; Homo sapiens, HCC1937",> 0.5 µM
same,IC50,"CAL-51; Homo sapiens, CAL-51",> 0.5 µM
same,IC50,"LB2518-MEL; Homo sapiens, LB2518-MEL",> 0.5 µM
same,IC50,NCI-H1770,0.103 µM
same,IC50,"KNS-42; Homo sapiens, KNS-42",> 0.5 µM
same,IC50,"HMV-2 cell line; Homo sapiens, HMV-2",> 0.5 µM
same,IC50,"KYSE-410; Homo sapiens, KYSE-410",> 0.5 µM
same,IC50,"ES5; Homo sapiens, ES5",> 0.5 µM
same,IC50,"HOP-92; Homo sapiens, HOP-92",> 0.5 µM
same,IC50,"NCI-H1651; Homo sapiens, NCI-H1651",> 0.5 µM
same,IC50,"HT-3; Homo sapiens, HT-3",> 0.5 µM
same,IC50,"COLO-824; Homo sapiens, COLO-824",> 0.5 µM
same,IC50,SNU1,> 0.5 µM
same,IC50,KARPAS-299,> 0.5 µM
same,IC50,"NCI-H520; Homo sapiens, NCI-H520",> 0.5 µM
same,IC50,HC-1,> 0.5 µM
same,IC50,"ES1; Homo sapiens, ES1",> 0.5 µM
same,IC50,KP-N-YS,> 0.5 µM
same,IC50,LU-139,0.305 µM
same,IC50,"SW626; Homo sapiens, SW626",> 0.5 µM
same,IC50,"NCI-H810; Homo sapiens, NCI-H810",> 0.5 µM
same,IC50,EOL1,0.269 µM
same,IC50,"SK-HEP1; Homo sapiens, SK-HEP1",> 0.5 µM
same,IC50,"Capan-2; Homo sapiens, Capan-2",> 0.5 µM
same,IC50,"GI-1; Homo sapiens, GI-1",> 0.5 µM
same,IC50,"GMS-10; Homo sapiens, GMS-10",> 0.5 µM
same,IC50,"OCUB-M; Homo sapiens, OCUB-M",> 0.5 µM
